Experimental data reported in PMC8160438, “A Novel Heptapeptide, GPPGPAG Transfers to the Brain, and Ameliorates Memory Dysfunction and Dendritic Atrophy in Alzheimer’s Disease Model Mice” (Frontiers in Pharmacology, 2021).
No end group written: not given here.

Legend:
cortical neurons = experiment: Entry into cultured cortical neurons, LC-MS of the lysate; format: in vitro ADME, mouse; settings: 1 mg/dish, 1.0 x 10^7 cells/10-cm dish, 0, 10, 20, 30, 60, 180, 360 min
Protocol: Intracellular amount of GPPGPAG after addition to cultured cortical neurons.
Mouse cortical neurons were seeded at 1.0 x 10^7 cells/10-cm dish. After 3 – 4 days culture, 1 mg/dish GPPGPAG was added. Incubation time was 0, 10,20, 30, 60, 180 and 360 min. After complete washing by PBS, cell lysate was prepared by M-PER solution. The lysate was ultrasonicated with methanol for 60 sec, and centrifuged (12000g) for 10 min at 4℃. Supernatant was dried up and served for […]
(1 picture or pasted object on this page, not shown here)

[1] = Cerebral cortex level after oral administration (brain penetration), LC-MS; format: in vivo, mouse
Protocol: Bioavailability and brain penetration of GPPGPAG was performed as previously described ([Yang et al., 2017]). GPPGPAG (500 mg) was dissolved in 750 μL of physiological saline. […] The mice were euthanized at 10, 60, and 180 min after administration. Blood was collected and centrifuged at 10,000 g and 4°C for 10 min to yield plasma. Plasma aliquots (200 μL) were extracted with methanol, dried, sonicated, and resolubilized in 50% methanol (100 μL). The cerebral cortex was also collected after complete saline perfusion for removing blood. The cortex was homogenized, extracted with methanol, dried, sonicated, and resolubilized in 50% methanol (100 µL). To calculate GPPGPAG concentration in the plasma and brain using liquid chromatography-mass spectrometry (LC-MS), a standard curve was generated by analyzing standard amounts of GPPGPAG solubilized in methanol at a dosage of 1, 5, and 10 μg/ml. A Thermo Scientific Accela high-performance LC (HPLC) system, interfaced with an LTQ Orbitrap XL hybrid Fourier Transform Mass Spectrometer (Thermo Fisher Scientific), was used to chemically profile GPPGPAG and the biosamples. The LC analysis was performed on a InertSustain AQ-C18 (4.6 mm ID × 50 mm, 5 μm, GL Sciences, Tokyo, Japan) held at 40°C with a flow rate of 200 μL/min 0.01% formic acid in water (a) and methanol (b) were used in the mobile phase, with the following linear elution gradient: 0–15 min, 10–90% b; 15–18 min, 90–10% b; 18–20 min, 10% b. The following electrospray interface (ESI) parameters were used: spray voltage, 4.5 kV; capillary voltage, […]; tube lens, 150 V; capillary temperature, 330°C; sheath gas flow rate, 50 units; aux gas flow rate, 10 units. […]
[…] (A) Total ion chromatogram (upper) and extracted ion current chromatogram (lower) of standard GPPGPAG (m/z = 552.2753) at 10 μg/ml for quantification of (B) and (C) data. […] In total ion chromatogram (upper) and extracted ion current chromatogram (lower) of m/z = 552.2753, no peaks were detected. […] In total ion chromatogram and extracted ion current chromatogram of m/z = 552.2753, peaks matching the retention time of GPPGPAG were detected. (D) Total ion chromatogram (upper) and extracted ion current chromatogram (lower) of standard GPPGPAG (m/z = 552.2716) at 10 μg/ml for quantification of (E) and (F) data. […] In total ion chromatogram (upper) and extracted ion current chromatogram (lower) of m/z = 552.2716, no peaks were detected. […] In total ion chromatogram and extracted ion current chromatogram of m/z = 552.2716, peaks matching the retention time of GPPGPAG were detected. Quantified amount of GPPGPAG in the plasma (G) and cerebral cortex (H) are shown. *p < 0.05, ****p < 0.0001 vs, saline 10 min, one-way ANOVA with post hoc Bonferroni’s test, mean ± standard error, n = 3 mice.

[2] = Stability in mouse plasma; format: in vitro ADME; settings: 5 μg/ml, 37°C, 0, 10, 60, 180 min, LC-MS, n = 1
Protocol: (§1) For intraventricular administration, GPPGPAG was dissolved in artificial cerebrospinal fluid (ACSF; 130 mM NaCl, 24 mM NaHCO3, 3.5 mM KCl, 1.3 mM Na2HPO4, 2 mM CaCl2, 2 mM MgCl2 6H2O, and 10 mM glucose at pH 7.4) for use. GPPGPAG or ACSF was continuously injected for 28 days into the left ventricle (bregma: −0.2 mm, lateral: 1.0 mm, depth: −3.0 mm) using Alzet Osmotic Pump (1004, DURECT Corporation, CA, United States) and ALZET Brain Infusion Kit 3 (DURECT Corporation). Based on the amount of CSF produced which was 18 μL/h and the pump flow rate of 0.11 μL/h, the peptide in the pump was estimated to be diluted 164 times in the CSF to reach a final concentration 10 nM which was the effective dose in the cultured neuron experiments. Therefore 1.64 µM GPPGPAG was loaded into the pump. Stability of GPPGPAG in saline, mouse plasma and mouse cerebral cortex was confirmed by LC-MS quantification. GPPGPAG was mixed with saline or plasma at 5 μg/ml concentration. Otherwise, GPPGPAG was mixed with cortical lysate at 6.5 μg/g of cortex. After incubation at 37°C for 0, 10, 60, and 180 min, samples were dried up and served to LC-MS. Areas of MS peaks of GPPGPAG were quantified. […]
(§2) Stability of GPPGPAG in biological fluids.
(§3) (A) GPPGPAG was mixed with saline at 5 μg/ml concentration. (B) GPPGPAG was mixed with mouse plasma at 5 μg/ml concentration. […]

Stability in saline = format: physicochemical; settings: 5 μg/ml, 37°C, 0, 10, 60, 180 min, LC-MS, n = 1
Protocol: as §1, §2, §3

[3] = Stability in lysate of mouse cerebral cortex; format: in vitro ADME
Protocol: as §1, §2, §3

GPPGPAG [GPPGPAG]
entry into the neurons (intracellular amount) (cortical neurons): detected from 10 min after treatment and gradually increased up to 360 min afterward | transferred amount in the brain ([1]; calculated for 10 mg/kg per orally from the cortex level at 500 mg/mouse): 0.598 pmol | tissue level at time at 3 h ([1]; cerebral cortex, po, 180 min after p.o. administration of 500 mg/mouse, ddY mice, female, LC-MS, mean of n = 3): 2750 ng/g | detection in the cerebral cortex ([1]; ddY mice, female, 8 weeks, 500 mg/mouse p.o. single dose, cortex after saline perfusion, LC-MS, n = 3): detected 10 min later | detection in plasma and cerebral cortex ([1]; male mouse, 9 weeks old, p.o. administration, data not shown): similarly detected in the plasma and cerebral cortex | stability, amount remaining (MS peak area) [2]: gradually reduced after 60-min incubation | stability, amount remaining (MS peak area) (Stability in saline): not declined during 180 min-incubation | stability, amount remaining (MS peak area) ([3]; fresh lysate of mouse cerebral cortex, 6.5 μg/g of cortex, 37°C, 0, 10, 60, 180 min, LC-MS, n = 1): declined at 60 min after the incubation | time retained in the brain after entering ([3]; inferred from stability in plasma and cortical lysate): ≤ 10 min
